Measured values published in patent US9782401B1, “Method of isolating phenanthroindolizidine alkaloids from Tylophora atrofolliculata with HIF-1 inhibitory activity, compositions comprising them and their use” (priority 2016, dated 2017).
Like-named read-outs stand apart in the source and are kept apart here.

How the values were obtained:
[1] = Cytotoxicity by MTT assay against T47D cells; conditions: human
Text: (§1) All experiments were independently performed at least three times.

HIF-1 [2] = target: T1, HIF-1 (Homo sapiens, UniProt Q16665); assay: HIF-1-mediated reporter gene assay in T47D cells (HRE-luciferase, hypoxia-induced HIF-1 activation); type: cell-based; design: endogenous in cells; host or cells: T47D cells (American Type Culture Collection)
Protocol: The HIF-1-mediated reporter gene assay in T47D cells was performed according to a previous protocol with minor modification (Parhira, S. et al., Sci. Rep., 2014, 4, 4748). T47D cells (American Type Culture Collection) were cultured in DMEM medium (Invitrogen), supplemented with 10% (v/v) fetal serum (FBS) (Invitrogen), 100 U/mL penicillin, and 100 μg/mL streptomycin (Invitrogen) in a humidified atmosphere (5% CO2 and 95% air) at 37° C. Cells (5×10^6) were co-transfected with the HRE-luciferase (Addgene) and Renilla plasmids using Lipofectamine 2000 (Invitrogen) according to the manufacturer's protocol. The transfected cells were seeded in 96-well plates with a density of 5×10^4/well and cultured in DMEM with 10% FBS overnight. After addition of the test compounds with different concentrations, the cells were incubated for 1 h, and then exposed to hypoxic (2% O2/5% CO2/93% N2) or normoxic (5% CO2/95% air) conditions at 37° C. for 20 h. Then the cells were lysed, and luciferase assay was performed using a Dual-Luciferase® reporter assay (Promega) kit according to the instructions of the manufacturer. Luciferase activities of both HRE and Renilla were determined by a multimode reader (Infinite 200 PRO, Teacan). HIF-1 transcriptional activity was shown by the ratio of firefly/Renilla luciferase activity. IC50 values were determined from the dose-response curves using Prism software. The data were repeated by three independent experiments.

HIF-1 [3] = target: T1, HIF-1; conditions: literature value (Hodges et al. 2004; Cai et al. 2006); read-out: HIF-1 inhibition IC50 (literature); cited from earlier work
T47D cells = assay: Cytotoxicity by MTT assay against T47D cells; conditions: read-out: Cytotoxicity against T47D cells IC50 (nM) Hypoxic; T47D cells, hypoxic conditions, MTT assay
Text: as §1

[4] = T47D cells, Cytotoxicity against T47D cells IC50 (nM) Hypoxic, hypoxic conditions, MTT assay
[5] = T47D cells, Cytotoxicity against T47D cells IC50 (nM) Normoxic, normoxic conditions, MTT assay
[6] = T47D human breast tumor cells, HIF-1 activation induced by hypoxia (2% O2, 20 h), means±SD, read-out: HIF-1 activation inhibitory activity IC50 (nM) T47D
[7] = Cytotoxicity against T47D cells IC50 (nM) Hypoxic, T47D cells, hypoxic conditions, MTT assay
[8] = Cytotoxicity against T47D cells IC50 (nM) Normoxic, T47D cells, normoxic conditions, MTT assay

T1 sequence (Q16665 whole entry): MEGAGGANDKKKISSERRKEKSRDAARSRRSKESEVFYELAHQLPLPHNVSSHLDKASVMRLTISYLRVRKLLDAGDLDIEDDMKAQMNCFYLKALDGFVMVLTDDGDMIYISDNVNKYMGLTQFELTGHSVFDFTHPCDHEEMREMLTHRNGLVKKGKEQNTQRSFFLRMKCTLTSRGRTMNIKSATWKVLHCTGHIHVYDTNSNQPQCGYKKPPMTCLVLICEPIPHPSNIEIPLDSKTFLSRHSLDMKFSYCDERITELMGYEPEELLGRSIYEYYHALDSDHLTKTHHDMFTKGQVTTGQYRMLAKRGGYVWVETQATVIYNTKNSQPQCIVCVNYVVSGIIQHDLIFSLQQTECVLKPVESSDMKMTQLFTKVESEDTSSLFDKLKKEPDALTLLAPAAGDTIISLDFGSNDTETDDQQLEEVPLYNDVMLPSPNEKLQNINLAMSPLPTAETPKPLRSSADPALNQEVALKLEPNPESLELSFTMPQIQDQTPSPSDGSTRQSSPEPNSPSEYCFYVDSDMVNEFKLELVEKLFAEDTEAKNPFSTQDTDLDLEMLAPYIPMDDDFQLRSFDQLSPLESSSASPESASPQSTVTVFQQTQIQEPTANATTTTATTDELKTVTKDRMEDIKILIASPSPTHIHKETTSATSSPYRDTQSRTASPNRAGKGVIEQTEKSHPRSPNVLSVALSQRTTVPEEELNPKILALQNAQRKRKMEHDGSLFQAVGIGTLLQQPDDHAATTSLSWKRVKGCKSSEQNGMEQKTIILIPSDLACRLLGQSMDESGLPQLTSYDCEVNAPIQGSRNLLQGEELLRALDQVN

SMILES | IC50 [1, 4] | IC50 [1, 5] | IC50 (HIF-1 [2]) | IC50 [1, 7] | IC50 [1, 8] | other results
COc1cc2c3c(c4ccc(O)cc4c2cc1O)[C@@H](O)[C@@H]1CCC[N@@+]1([O-])C3 [compound 6, 10R, 14R-3-O-demethyl tylophorinidine N-oxide] | > 200 nM | > 200 nM | – | – | – | IC50 (HIF-1 [2]; [6]): 50 ± 35 nM
COc1ccc2c3c(c4cc(OC)c(O)cc4c2c1)CN1CCC[C@H]1[C@H]3O [compound 14, tylophorinidine] | > 100 nM | > 10 nM | 4 nM | – | – | –
COc1ccc2c3c(c4cc(OC)c(OC)cc4c2c1)CN1CCC[C@H]1[C@H]3O [compound 21, O-methyl-tylophorindine] | – | – | 13 nM | > 12500 nM | > 500 nM | –
COc1ccc([C@@H](O)[C@@H](C)Oc2ccc([C@H]3O[C@H](c4ccc(O[C@H](C)[C@H](O)c5ccc6c(c5)OCO6)c(OC)c4)[C@H](C)[C@H]3C)cc2OC)cc1OC [Manassantin B] | – | – | – | – | – | IC50 (HIF-1 [3]): 3 nM
COc1ccc2c3c(c4cc(OC)c(O)cc4c2c1)C[N+]1([O-])CCC[C@H]1[C@H]3O (stereo partly shown) [compound 16, tylophoridicine C] | – | – | 25 nM | – | – | IC50 [1]: > 100 nM; IC50 (T47D cells): > 100 nM
COc1cc2c3c(c4cc(OC)c(OC)cc4c2cc1OC)C[N@+]1([O-])CCC[C@H]1C3 [compound 11, 10R, 13aS-tylophorine N-oxide] | > 2000 nM | > 2000 nM | – | – | – | IC50 (HIF-1 [2]; [6]): 930 nM
COc1cc2c3c(c4cc(OC)c(OC)cc4c2cc1OC)[C@H](O)[C@@H]1CCC[N@@+]1([O-])C3 [compound 10, 10R, 13aS, 14S-14-hydroxytylophorine N-oxide] | > 2000 nM | > 2000 nM | – | – | – | IC50 (HIF-1 [2]; [6]): 441 nM
COc1cc2c3c(c4cc(O)c(OC)cc4c2cc1O)CC1CCCN1C3 (stereo not shown) [compound 4, 2-hydroxyl deoxytylophorinidine] | – | – | 19 ± 2 nM | > 500 nM | > 500 nM | –
COc1cc2c3c(c4cc(O)c(OC)cc4c2cc1O)C(O)C1CCCN1C3 (stereo not shown) [compound 5, 2-hydroxyl tylophorinidine] | > 250 nM | > 250 nM | 10 nM | – | – | –
COc1ccc2c3c(c4cc(OC)c(OC)cc4c2c1)CN1O[C@@H](CC(C)=O)CC[C@H]1[C@H]3O (single isomer, unassigned) [compound 3, 12S, 14aS, 15S-11-oxa-12-(2-oxopropyl)-hydroxyboehmeriasin A] | > 20000 nM | > 10000 nM | – | – | – | IC50 (HIF-1 [2]; [6]): 2660 ± 1810 nM
COc1ccc2c3c(c4cc(OC)c(OC)cc4c2c1)CN1CCC[C@H]1[C@@H]3O [compound 18, tylophorinine] | – | – | 19 nM | > 500 nM | > 500 nM | –
COc1cc2c3c(c4ccc(O)cc4c2cc1OC)[C@H](O)[C@@H]1CCCN1C3 [compound 15, trans-(+)-3,14a-dihydroxy-6,7-dimethoxyphenanthroindolizidine] | > 250 nM | > 250 nM | – | – | – | IC50 (HIF-1 [2]; [6]): 6 ± 3 nM
COc1ccc2c3c(c4cc(OC)c(O)cc4c2c1)CN1C(=O)CC[C@H]1[C@H]3O [compound 1, 11-keto-tylophorinidine] | – | – | > 10000 nM | – | – | –
COc1ccc2c(c1)c1cc(OC)c(OC)cc1c1c[n+]3c(cc21)CCC3 [compound 22, tylophoridicine D] | – | – | > 10000 nM | – | – | –
COc1cc2c3c(c4cc(OC)c(OC)cc4c2cc1OC)CN1CCC[C@H]1C3 [compound 19, 13aS-tylophorine] | – | – | 438 nM | > 2000 nM | > 1000 nM | –
COc1cc2c3c(c4cc(O)c(OC)cc4c2cc1O)[C@@H](O)[C@H]1CCC[N@+]1([O-])C3 [compound 7, 10S, 13aR, 14R-2-hydroxyl tylophorinidine N-oxide] | > 1000 nM | > 1000 nM | – | – | – | IC50 (HIF-1 [2]; [6]): 37 ± 8 nM
COc1cc2c(cc1O)c1c(c3cc(OC)c(OC)cc32)C[N@+]2([O-])CCC[C@H]2[C@@H]1O [compound 8, 10R-2-hydroxyl tylophorinine N-oxide] | > 1000 nM | > 1000 nM | 170 ± 106 nM | – | – | –
COc1cc2c3c(c4ccc(O)cc4c2cc1O)[C@H](O)[C@@H]1CCCN1C3 [compound 13, 3-O-demethyl tylophorinidine] | > 250 nM | > 250 nM | 10 nM | – | – | –
COc1cc2c(cc1O)c1c(c3cc(OC)c(OC)cc32)CN2CCC[C@@H]2[C@@H]1O [compound 9, 13aR-2-hydroxyl tylophorinine] | – | – | 489 ± 108 nM | > 2000 nM | > 2000 nM | –
COc1ccc2c3c(c4cc(OC)c(OC)cc4c2c1)C[N@+]1([O-])CCC[C@H]1C3 [compound 12, 10R-deoxytylophorinine N-oxide] | – | – | 254 nM | > 2000 nM | > 1000 nM | –
COc1ccc2c3c(c4cc(OC)c(OC)cc4c2c1)C[N+]1([O-])CCC[C@@H]1[C@@H]3O (stereo partly shown) [compound 17, tylophorinine N-oxide] | – | – | 3 nM | – | – | IC50 [1]: > 100 nM; IC50 (T47D cells): > 100 nM
COc1ccc2c3c(c4cc(OC)c(OC)cc4c2c1)CN1CCC[C@H]1C3 [compound 20, deoxytylophorinine] | – | – | 115 nM | > 15000 nM | > 600 nM | times more potent than its dehydrogenated product (22) (HIF-1 [2]; compound (20) versus (22), HIF-1 IC50): at least 8 times
